How the values were obtained:
Ramos cells = experiment: Cell death (MTS) assay in Ramos cells; assay type: cell-based, human; conditions: Ramos cells cultured with HDL NPs; inhibitor added at 1 μM
Experimental: (§1) MTS assays (CellTiter; Promega) were conducted as described previously. For the Ramos, SUDHL4, Raji, Daudi, Namalwa, SUDHL6 and Jurkat cells were plated at a density of 2×10^5 cells/mL, and cultured for 72 hours prior to assay. SUDHL1, SR-786, and U937 cells were plated at a density of 5×10^4 cells/mL and cultured for 5 days prior to MTS assay. The SCARB1 blocking and isotype control antibodies were added at a dilution of 1:1000 to 1:250. Ferrostatin-1 and deferoxamine (DFO) were obtained from Sigma Aldrich, and added at a final concentration of 1 μM. MTS values were standardized to PBS control.

SUDHL4 cells = experiment: Cell death (MTS) assay in SUDHL4 cells; assay type: cell-based, human; conditions: SUDHL4 cells cultured with HDL NPs; inhibitor added at 1 μM
Experimental: as §1

[1] = test system: 769-P, a clear cell renal carcinoma cell line; experiment: MTS cell death / rescue assay in 769-P cells; assay type: cell-based; conditions: 769-P cells with HDL NPs
OVCAR5 cell line = experiment: MTS cell death / rescue assay in OVCAR5 cells; assay type: cell-based; conditions: OVCAR5 cells with HDL NPs
[2] = test system: OVCAR5 CP Resistant Cell Line; experiment: MTS cell death / rescue assay in OVCAR5 CP Resistant cells; assay type: cell-based; conditions: OVCAR5 CP Resistant cells with HDL NPs
[3] = test system: 786-O (renal cell carcinoma-clear cell) cells; experiment: MTS cell death / rescue assay in 786-O cells; assay type: cell-based; conditions: 786-O cells with HDL NPs

Structure (SMILES): CCOC(=O)c1ccc(NC2CCCCC2)c(N)c1 [ferrostatin-1]
- effect on HDL NP induced cell death (Ramos cells): significantly inhibited
- effect on HDL NP induced cell death (SUDHL4 cells): significantly inhibited
- effect on cell death induced by HDL NPs (MTS) [1]: rescued
- effect on cell death induced by HDL NPs (MTS) (OVCAR5 cell line): rescued
- effect on cell death induced by HDL NPs (MTS) [2]: rescued
- effect on cell death induced by HDL NPs (MTS Rescue Assay) [3]: rescued
- effect on cell death induced by HDL NPs (MTS Rescue Assay) ([3]; listed as Ferrostatin-1): dramatic effects
